ChEMBL document CHEMBL3132769, “Fragment growing to retain or alter the selectivity of anchored kinase hinge-binding fragments” (Medchemcomm, 2014)

What was measured:
[1] = target: T1, Serine/threonine-protein kinase 3 (Homo sapiens) (UniProt Q13188); assay: Inhibition of human full length MST2 expressed in baculovirus assessed as substrate phosphorylation using fluorescence-labelled peptides as substrate at 95 uM after 90 mins by microfluidic peptide phosphorylation assay
T1 sequence (whole entry): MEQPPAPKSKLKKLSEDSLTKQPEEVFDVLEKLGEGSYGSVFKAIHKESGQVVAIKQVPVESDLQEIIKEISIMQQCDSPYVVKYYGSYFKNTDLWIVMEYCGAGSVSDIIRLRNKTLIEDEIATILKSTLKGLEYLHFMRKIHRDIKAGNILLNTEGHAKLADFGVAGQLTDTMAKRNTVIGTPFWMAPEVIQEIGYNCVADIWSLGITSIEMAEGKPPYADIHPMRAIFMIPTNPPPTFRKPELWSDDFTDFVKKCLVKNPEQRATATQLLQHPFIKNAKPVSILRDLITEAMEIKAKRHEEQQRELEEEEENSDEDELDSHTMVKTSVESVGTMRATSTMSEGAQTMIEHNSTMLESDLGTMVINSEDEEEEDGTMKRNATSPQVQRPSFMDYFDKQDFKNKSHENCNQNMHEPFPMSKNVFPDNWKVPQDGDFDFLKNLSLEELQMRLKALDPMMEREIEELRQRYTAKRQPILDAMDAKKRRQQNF

[2] = target: T2, Testis-specific serine/threonine-protein kinase 1 (Homo sapiens) (UniProt Q9BXA7); assay: Inhibition of human full length TSSK1 expressed in baculovirus assessed as substrate phosphorylation using fluorescence-labelled peptides as substrate at 95 uM after 90 mins by microfluidic peptide phosphorylation assay
T2 sequence (whole entry): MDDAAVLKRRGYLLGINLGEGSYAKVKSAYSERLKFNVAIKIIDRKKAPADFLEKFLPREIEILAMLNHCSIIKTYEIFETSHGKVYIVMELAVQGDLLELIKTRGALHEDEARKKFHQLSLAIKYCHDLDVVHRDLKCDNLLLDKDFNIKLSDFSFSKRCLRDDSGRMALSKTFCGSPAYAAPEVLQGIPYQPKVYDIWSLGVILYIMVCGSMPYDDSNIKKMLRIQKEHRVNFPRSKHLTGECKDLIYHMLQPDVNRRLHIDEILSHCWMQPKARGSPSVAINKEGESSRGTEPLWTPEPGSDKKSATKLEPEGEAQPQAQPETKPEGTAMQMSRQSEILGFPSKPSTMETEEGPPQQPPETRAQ

[3] = target: Casein kinase I isoform delta (Homo sapiens) (UniProt P48730); assay: Inhibition of human CK1D catalytic domain expressed in Escherichia coli cell assessed as substrate phosphorylation using fluorescence-labelled peptides as substrate at 0.06 uM after 90 mins by microfluidic peptide phosphorylation assay
Casein kinase I isoform delta (Homo sapiens), sequence (P48730 whole entry, looked up, the tested form may be a part, canonical isoform): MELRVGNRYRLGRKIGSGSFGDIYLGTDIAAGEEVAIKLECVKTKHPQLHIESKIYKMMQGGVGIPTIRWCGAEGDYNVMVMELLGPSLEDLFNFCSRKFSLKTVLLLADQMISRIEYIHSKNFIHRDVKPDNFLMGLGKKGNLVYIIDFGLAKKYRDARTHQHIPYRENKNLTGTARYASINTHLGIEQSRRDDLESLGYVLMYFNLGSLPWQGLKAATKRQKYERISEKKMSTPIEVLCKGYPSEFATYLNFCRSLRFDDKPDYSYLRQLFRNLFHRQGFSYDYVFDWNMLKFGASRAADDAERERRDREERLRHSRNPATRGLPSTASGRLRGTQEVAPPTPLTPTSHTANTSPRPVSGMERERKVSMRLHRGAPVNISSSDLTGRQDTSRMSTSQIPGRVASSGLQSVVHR

[4] = target: Tyrosine-protein kinase ABL2 (Homo sapiens) (UniProt P42684); assay: Inhibition of human truncated Arg expressed in baculovirus assessed as substrate phosphorylation using fluorescence-labelled peptides as substrate at 0.06 uM after 90 mins by microfluidic peptide phosphorylation assay
Tyrosine-protein kinase ABL2 (Homo sapiens), sequence (P42684 whole entry, the tested form may be a part): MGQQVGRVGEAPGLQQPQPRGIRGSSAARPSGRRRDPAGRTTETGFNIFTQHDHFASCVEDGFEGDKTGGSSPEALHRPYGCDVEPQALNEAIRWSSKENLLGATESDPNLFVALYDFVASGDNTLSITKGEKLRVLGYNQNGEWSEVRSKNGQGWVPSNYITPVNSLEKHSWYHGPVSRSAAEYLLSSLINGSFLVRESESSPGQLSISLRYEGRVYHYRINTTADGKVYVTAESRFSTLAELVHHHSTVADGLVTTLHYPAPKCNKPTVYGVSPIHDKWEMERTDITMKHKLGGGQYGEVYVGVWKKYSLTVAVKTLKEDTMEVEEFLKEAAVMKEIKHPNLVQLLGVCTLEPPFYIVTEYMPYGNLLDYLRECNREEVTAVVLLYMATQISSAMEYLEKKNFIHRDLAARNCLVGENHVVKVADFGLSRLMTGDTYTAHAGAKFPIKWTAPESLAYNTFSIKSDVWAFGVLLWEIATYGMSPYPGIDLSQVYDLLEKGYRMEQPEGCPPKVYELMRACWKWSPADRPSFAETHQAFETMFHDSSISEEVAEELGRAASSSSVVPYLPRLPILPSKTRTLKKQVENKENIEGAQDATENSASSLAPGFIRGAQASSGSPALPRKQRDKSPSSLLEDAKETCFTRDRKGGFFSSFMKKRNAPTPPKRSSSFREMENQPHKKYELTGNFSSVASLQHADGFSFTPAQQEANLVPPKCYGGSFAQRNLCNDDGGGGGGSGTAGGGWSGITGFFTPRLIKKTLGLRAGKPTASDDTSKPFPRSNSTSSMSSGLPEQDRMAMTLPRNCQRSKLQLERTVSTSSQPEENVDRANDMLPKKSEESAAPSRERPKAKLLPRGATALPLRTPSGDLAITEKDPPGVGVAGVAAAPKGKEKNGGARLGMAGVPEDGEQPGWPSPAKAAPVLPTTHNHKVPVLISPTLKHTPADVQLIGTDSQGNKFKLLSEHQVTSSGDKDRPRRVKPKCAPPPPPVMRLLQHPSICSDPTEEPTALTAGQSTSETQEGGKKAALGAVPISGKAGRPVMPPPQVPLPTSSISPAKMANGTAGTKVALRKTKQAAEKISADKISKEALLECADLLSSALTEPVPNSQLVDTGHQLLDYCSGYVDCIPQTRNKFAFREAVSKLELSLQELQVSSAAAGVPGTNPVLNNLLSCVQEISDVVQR

[5] = target: Aurora kinase B (Homo sapiens) (UniProt Q96GD4); settings: 0.1 uM
Aurora kinase B (Homo sapiens), sequence (Q96GD4 whole entry): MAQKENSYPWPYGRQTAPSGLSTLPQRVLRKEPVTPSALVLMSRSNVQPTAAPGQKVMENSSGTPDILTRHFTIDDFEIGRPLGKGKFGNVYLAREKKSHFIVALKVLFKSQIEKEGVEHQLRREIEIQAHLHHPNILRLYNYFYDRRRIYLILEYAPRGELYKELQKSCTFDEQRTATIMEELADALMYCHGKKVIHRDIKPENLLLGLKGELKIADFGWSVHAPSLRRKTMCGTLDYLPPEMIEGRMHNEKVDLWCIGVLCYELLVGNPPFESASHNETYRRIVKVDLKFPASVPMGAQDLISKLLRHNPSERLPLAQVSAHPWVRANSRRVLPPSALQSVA
Description: Inhibition of human full length AurB expressed in baculovirus assessed as substrate phosphorylation using fluorescence-labelled peptides as substrate at 0.1 uM after 90 mins by microfluidic peptide phosphorylation assay

[6] = species on record: Homo sapiens; settings: 0.1 uM
Description: Inhibition of human P70S6K catalytic domain expressed in baculovirus assessed as substrate phosphorylation using fluorescence-labelled peptides as substrate at 0.1 uM after 90 mins by microfluidic peptide phosphorylation assay

[7] = target: T3, Aurora kinase C (Homo sapiens) (UniProt Q9UQB9); assay: Inhibition of human full length AurC expressed in baculovirus assessed as substrate phosphorylation using fluorescence-labelled peptides as substrate at 0.2 uM after 90 mins by microfluidic peptide phosphorylation assay
T3 sequence (whole entry): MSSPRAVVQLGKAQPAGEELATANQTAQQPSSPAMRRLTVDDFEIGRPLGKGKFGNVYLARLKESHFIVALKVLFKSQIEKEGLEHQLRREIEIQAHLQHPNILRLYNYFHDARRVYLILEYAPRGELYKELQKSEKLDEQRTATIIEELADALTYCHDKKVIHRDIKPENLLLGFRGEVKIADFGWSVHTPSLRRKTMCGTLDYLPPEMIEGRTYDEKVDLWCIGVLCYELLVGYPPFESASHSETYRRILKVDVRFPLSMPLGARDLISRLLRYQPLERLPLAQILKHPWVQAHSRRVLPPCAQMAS

[8] = system: Tyrosine-protein kinase ABL1 (Homo sapiens), P00519 [H396P]; assay: Inhibition of human truncated ABL H396P mutant expressed in baculovirus assessed as substrate phosphorylation using fluorescence-labelled peptides as substrate at 8 uM after 90 mins by microfluidic peptide phosphorylation assay
[9] = target: Fibroblast growth factor receptor 4 (Homo sapiens) (UniProt P22455); assay: Inhibition of human FGFR4 catalytic domain expressed in baculovirus assessed as substrate phosphorylation using fluorescence-labelled peptides as substrate at 1000 uM after 90 mins by microfluidic peptide phosphorylation assay
Fibroblast growth factor receptor 4 (Homo sapiens), sequence (P22455 22-802 limits assumed): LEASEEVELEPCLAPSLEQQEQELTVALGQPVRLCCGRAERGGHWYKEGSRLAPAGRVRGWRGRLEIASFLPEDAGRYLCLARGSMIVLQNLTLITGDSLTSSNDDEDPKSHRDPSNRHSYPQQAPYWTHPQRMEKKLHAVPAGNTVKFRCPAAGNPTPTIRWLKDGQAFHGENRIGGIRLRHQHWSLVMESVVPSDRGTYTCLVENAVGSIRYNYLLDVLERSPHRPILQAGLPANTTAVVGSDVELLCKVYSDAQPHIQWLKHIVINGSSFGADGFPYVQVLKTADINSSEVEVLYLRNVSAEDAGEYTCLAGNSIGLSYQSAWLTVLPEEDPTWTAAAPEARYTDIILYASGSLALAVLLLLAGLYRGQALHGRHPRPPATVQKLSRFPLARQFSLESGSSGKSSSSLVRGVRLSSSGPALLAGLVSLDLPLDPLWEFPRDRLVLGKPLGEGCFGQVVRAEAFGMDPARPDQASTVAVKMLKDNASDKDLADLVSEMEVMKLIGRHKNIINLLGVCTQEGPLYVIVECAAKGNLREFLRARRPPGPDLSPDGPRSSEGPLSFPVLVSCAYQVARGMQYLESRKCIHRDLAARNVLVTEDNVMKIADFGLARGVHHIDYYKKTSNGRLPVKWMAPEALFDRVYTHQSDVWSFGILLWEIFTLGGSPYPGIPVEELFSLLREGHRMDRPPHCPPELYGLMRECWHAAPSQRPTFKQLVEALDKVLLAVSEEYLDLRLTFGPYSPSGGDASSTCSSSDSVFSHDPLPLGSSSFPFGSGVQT

[10] = target: T4, Serine/threonine-protein kinase D2 (Homo sapiens) (UniProt Q9BZL6); assay: Inhibition of human full length PKD2 expressed in baculovirus assessed as substrate phosphorylation using fluorescence-labelled peptides as substrate at 1000 uM after 90 mins by microfluidic peptide phosphorylation assay
T4 sequence (whole entry): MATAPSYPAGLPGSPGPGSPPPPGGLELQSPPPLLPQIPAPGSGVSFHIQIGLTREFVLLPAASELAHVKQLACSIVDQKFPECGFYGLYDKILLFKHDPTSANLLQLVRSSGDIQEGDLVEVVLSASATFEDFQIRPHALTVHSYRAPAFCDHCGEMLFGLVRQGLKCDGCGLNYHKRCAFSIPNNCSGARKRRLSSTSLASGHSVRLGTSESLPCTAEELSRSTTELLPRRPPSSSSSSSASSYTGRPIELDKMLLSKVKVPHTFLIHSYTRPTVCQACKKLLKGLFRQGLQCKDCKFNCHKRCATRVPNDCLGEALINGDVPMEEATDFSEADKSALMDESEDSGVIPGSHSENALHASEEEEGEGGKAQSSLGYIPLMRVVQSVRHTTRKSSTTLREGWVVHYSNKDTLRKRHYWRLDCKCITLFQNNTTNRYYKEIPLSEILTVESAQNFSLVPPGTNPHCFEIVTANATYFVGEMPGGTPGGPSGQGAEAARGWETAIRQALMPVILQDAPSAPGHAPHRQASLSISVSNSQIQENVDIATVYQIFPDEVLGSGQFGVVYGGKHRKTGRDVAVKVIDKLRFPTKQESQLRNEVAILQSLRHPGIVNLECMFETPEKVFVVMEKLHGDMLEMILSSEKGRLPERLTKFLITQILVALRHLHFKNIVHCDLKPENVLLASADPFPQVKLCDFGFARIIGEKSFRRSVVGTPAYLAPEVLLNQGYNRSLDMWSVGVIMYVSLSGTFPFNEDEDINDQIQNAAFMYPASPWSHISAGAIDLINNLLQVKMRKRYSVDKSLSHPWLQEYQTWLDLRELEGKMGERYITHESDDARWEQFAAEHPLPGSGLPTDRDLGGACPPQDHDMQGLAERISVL

Q: How did the inhibition [1] turn out when `NCCc1ccc(-c2ncnc3[nH]cnc23)cc1` was run?
A: Its inhibition is 86.5%.

Q: What about the inhibition [2] of the same compound?
A: Its inhibition is 89%.

Q: How did the inhibition [3] turn out when `NC1(Cc2ccc(Cl)cc2)CCN(c2ncnc3[nH]ccc23)CC1` was run?
A: The inhibition was 0.5%.

Q: What about the inhibition [4] of the same compound?
A: Its inhibition is 5%.

Q: Which inhibition [5] does the source give for `C[C@H](CN(C)C)Oc1nc(Nc2cc3cccc(Cl)c3cn2)cnc1C#N` here?
A: The inhibition was 0%.

Q: And the inhibition [6]?
A: Its inhibition is 0%.

Q: `Clc1ccc(C2(c3ccc(-c4ncnc5[nH]cnc45)cc3)CCNCC2)cc1` was tested. Which inhibition [7] did it give?
A: Its inhibition is 73.5%.

Q: With `NCC1CCN(c2ncnc3[nH]ccc23)CC1` as the compound, how does the inhibition [8] read?
A: Its inhibition is 20.5%.

Q: For `c1cnc2[nH]ccc2c1`, which inhibition [9] is on record?
A: Its inhibition is 28.5%.

Q: What about the inhibition [10] of the same compound?
A: Its inhibition is 49.5%.
